# Measurements: patent US20100168210A1, “T-Cell Cytokine-Inducing Surface Molecules and Methods of Use” (priority 2007, published 2010)
# Tests used:
# [1] = system: T-cell-mediated TNFα production from human Mφ; assay: T cell membrane-Mφ cell contact bioassay (activated T-cell mediated cytokine production); format: cell-based; conditions: anti-CD3/anti-CD28 activated T-cell membranes; CD14+ Mφ; FIG. 14
# Experimental: Primary T cells or H9 cells were washed with cold PBS and cell pellets were resuspended in freshly made 1% paraformaldehyde at 5×10^6 cells/ml. Cells were fixed on ice for 2 hours, and then washed with 20× volume of cold PBS three times. Following the third wash, the cells were kept in PBS at 4° C. overnight to allow diffusion of paraformaldehyde. Cells were centrifuged and washed one more time. The fixed T cells were resuspended in medium at 1×10^7 cells/ml and dispensed into a 96 well U bottom plate at about 1×10^6/ml THP-1 cells 100 μl per well. Primary T cells or H9 cells (100 μl per well) were added at 8×, 4×, and 2×10^6 cells/ml. The plates were incubated at 37° C., in humidified 5% CO2 for 48 hours. Plates were centrifuged at 1,500 rpm for 5 minutes and supernatant (120 μl) transferred into a fresh plate. The supernatant was stored at −20° C. until used. […]
# Using the T cell membrane-Mφ cell contact bioassay, small molecule antagonists were identified that differentially block anti-CD3/anti-CD28 activated T-cell mediated—but not LPS stimulated—TNFα and IL-1β production from peripheral blood resident CD14^+ Mφ. Several kinase inhibitors were selected and assessed for the effects of these compounds in blocking TNFα and/or IL-1β production using a validated T-cell membrane-Mφ contact bioassay. […]
# [2] = system: Murine Collagen-Induced Arthritis; assay: Murine Collagen-Induced Arthritis study; format: in vivo, mice; conditions: 50 mg/kg P.O. once per day beginning at day +1; day +13 after induction; FIG. 18
# Experimental: Mice were immunized with CII+CFA on day 0 and boosted on day 21 with CII+IFA. A total of 10 DBA female mice per group were used. Drugs were administered as shown and started on the first day of initial signs of paw swelling/arthritis. Mean arthritis score (see data below) was assessed according to the procedure of Bendele et al., Arthritis & Rheumatism, 2000, 43(12), pp 2648-2659. […] Mice were treated 8 days after showing signs of collagen induced arthritis.
# FIG. 18 is a joint histopathology of representative mice. In FIG. 18, panel A denotes a knee joint obtained from a DBA mouse with collagen-induced arthritis treated with an isotype-control rat-anti-mouse MAb (negative control) showing that […] over the course of this control treatment.
# [3] = system: LPS-stimulated TNFα and IL-1β production; assay: LPS-stimulated Mφ cytokine production; format: cell-based, human; conditions: FIG. 14
# Source text: Using the T cell membrane-Mφ cell contact bioassay, small molecule antagonists were identified that differentially block anti-CD3/anti-CD28 activated T-cell mediated—but not LPS stimulated—TNFα and IL-1β production from peripheral blood resident CD14^+ Mφ. Several kinase inhibitors were selected and assessed for the effects of these compounds in blocking TNFα and/or IL-1β production using a validated T-cell membrane-Mφ contact bioassay. […] Therefore, the activated T-cell membrane-Mt contact bioassay using human T-cells and Mφ can be used to establish high-throughput screens with recombinant TCISM (once identified and cloned) to identify orally-active, small molecule antagonists that specifically target adaptive, but not LPS-mediated, innate immunity. Some orally active, small molecule TNFα and/or IL-1β inhibitors which interfere specifically with T-cell mediated Mφ activation, leading to enhanced cytokine production but not LPS-mediated Mφ cytokine release, have a favorable therapeutic/side effect profile in T-cell mediated skin diseases such as Ps.
structure (smiles),measurement,setting,value
C[S+]([O-])c1ccccc1-n1cnc(-c2ccc(F)cc2)c1-c1ccncc1 (stereo not drawn) [Compound C],Inhibition of T-cell-mediated TNFα production from human Mφ,[1],completely inhibit
same,Joint histopathology (knee joint inflammation),[2],reduced inflammation
same,Effect on LPS-stimulated TNFα and IL-1β production,[3],without having any significant effect
